# Measurements: paper PMC5656653, “Evaluation of Ga-DOTA-(D-Asp)n as bone imaging agents: D-aspartic acid peptides as carriers to bone” (Scientific Reports, 2017)
# “Also recorded” adds a separate entry of the source. Where a SMILES comes first, the peptide text is derived from it. [ ]: non-standard residue; d: D form. The star is where a group is joined. DOTA = O=C(O)CN1CCN(CC(=O)O)CCN(CC(=O)*)CCN(CC(=O)O)CC1
# Test: Biodistribution experiments in normal mice after i.v. injection
# Format: in vivo
# Details: for tissue uptake dose at 10 min / tissue uptake dose at 1 h / tissue uptake dose at 3 h: male, ddY, total radioactivity, Biodistribution of radioactivity; for Biodistribution of radioactivity, Blood / Biodistribution of radioactivity, Bone (Femur) / Biodistribution of radioactivity, Brain / Biodistribution of radioactivity, Heart / Biodistribution of radioactivity, Kidney / Biodistribution of radioactivity, Large-intestine / Biodistribution of radioactivity, Liver / Biodistribution of radioactivity, Lung / Biodistribution of radioactivity, Muscle / Biodistribution of radioactivity, Pancreas / Biodistribution of radioactivity, Small-intestine / Biodistribution of radioactivity, Spleen / F/B ratio (Femur:blood ratio) / Biodistribution of radioactivity, Stomach: mice, mean (SD); for Biodistribution of radioactivity, Stomach: footnote b
# Experimental: Experiments with animals were conducted in strict accordance with the Guidelines for the Care and Use of Laboratory Animals of Kanazawa University. The animal experimental protocols used were approved by the Committee on Animal Experimentation of Kanazawa University (Permit Number: AP-132633). Biodistribution experiments were performed after intravenous administration of each diluted tracer solution (37–740 kBq/100 μL) to 6-week-old male ddY mice (27–32 g, Japan SLC, Inc., Hamamatsu, Japan). Four or five mice at each time point after the administration of each compound were sacrificed by decapitation at 10, 60, and 180 min post-injection. Tissues of interest were taken and weighed. Complete left femurs were isolated as representative bone samples, radioactivity was determined using gamma counters (AccuFLEX γ ARC-8001 in the case of ^18F, Hitachi, Ltd.), and background counts and physical decay were corrected during counting.
# [1] = mouse, in vivo, iv, Bone (Femur)
# [2] = mouse, in vivo, iv, Large-intestine
# [3] = mouse, in vivo, iv, Small-intestine
compound,measurement,setting,value
"O=C(O)C[C@@H](NC(=O)[C@@H](CC(=O)O)NC(=O)CN1CCN(CC(=O)O)CCN(CC(=O)O)CCN(CC(=O)O)CC1)C(=O)O [^67Ga-DOTA-(D-Asp)2, metal not drawn] ({DOTA}-[dD]-[dD]-OH)",tissue uptake dose at 10 min,"mouse, in vivo, iv, Blood",2.19 %ID
same,tissue uptake dose at 1 h,"mouse, in vivo, iv, Blood",0.24 %ID
same,tissue uptake dose at 3 h,"mouse, in vivo, iv, Blood",0.05 %ID
same,tissue uptake dose at 10 min,[1],1.57 %ID
same,tissue uptake dose at 1 h,[1],0.88 %ID
same,tissue uptake dose at 3 h,[1],0.49 %ID
same,tissue uptake dose at 10 min,"mouse, in vivo, iv, Brain",0.07 %ID
same,tissue uptake dose at 1 h,"mouse, in vivo, iv, Brain",0.02 %ID
same,tissue uptake dose at 3 h,"mouse, in vivo, iv, Brain",0.01 %ID
same,tissue uptake dose at 10 min,"mouse, in vivo, iv, Heart",0.86 %ID
same,tissue uptake dose at 1 h,"mouse, in vivo, iv, Heart",0.11 %ID
same,tissue uptake dose at 3 h,"mouse, in vivo, iv, Heart",0.06 %ID
same,tissue uptake dose at 10 min,"mouse, in vivo, iv, Kidney",7.61 %ID
same,tissue uptake dose at 1 h,"mouse, in vivo, iv, Kidney",6.33 %ID
same,tissue uptake dose at 3 h,"mouse, in vivo, iv, Kidney",1.42 %ID
same,tissue uptake dose at 10 min,[2],0.37 %ID
same,tissue uptake dose at 1 h,[2],0.12 %ID
same,tissue uptake dose at 3 h,[2],0.38 %ID
same,tissue uptake dose at 10 min,"mouse, in vivo, iv, Liver",0.57 %ID
same,tissue uptake dose at 1 h,"mouse, in vivo, iv, Liver",0.31 %ID
same,tissue uptake dose at 3 h,"mouse, in vivo, iv, Liver",0.11 %ID
same,tissue uptake dose at 10 min,"mouse, in vivo, iv, Lung",1.45 %ID
same,tissue uptake dose at 1 h,"mouse, in vivo, iv, Lung",0.26 %ID
same,tissue uptake dose at 3 h,"mouse, in vivo, iv, Lung",0.08 %ID
same,tissue uptake dose at 10 min,"mouse, in vivo, iv, Muscle",0.53 %ID
same,tissue uptake dose at 1 h,"mouse, in vivo, iv, Muscle",0.11 %ID
same,tissue uptake dose at 3 h,"mouse, in vivo, iv, Muscle",0.08 %ID
same,tissue uptake dose at 10 min,"mouse, in vivo, iv, Pancreas",0.57 %ID
same,tissue uptake dose at 1 h,"mouse, in vivo, iv, Pancreas",0.15 %ID
same,tissue uptake dose at 3 h,"mouse, in vivo, iv, Pancreas",0.09 %ID
same,tissue uptake dose at 10 min,[3],0.5 %ID
same,tissue uptake dose at 1 h,[3],0.14 %ID
same,tissue uptake dose at 3 h,[3],0.08 %ID
same,tissue uptake dose at 10 min,"mouse, in vivo, iv, Spleen",0.5 %ID
same,tissue uptake dose at 1 h,"mouse, in vivo, iv, Spleen",0.24 %ID
same,tissue uptake dose at 3 h,"mouse, in vivo, iv, Spleen",0.08 %ID
same,tissue uptake dose at 10 min,"mouse, in vivo, iv, Stomach",0.24 %ID
same,tissue uptake dose at 1 h,"mouse, in vivo, iv, Stomach",0.06 %ID
same,tissue uptake dose at 3 h,"mouse, in vivo, iv, Stomach",0.36 %ID
same,Accumulation of radioactivity in bone (in words),"mouse, in vivo, iv",subtle accumulation of radioactivity in bone
"[18F-].[Na+] [[^18F]NaF, reference compound]","Biodistribution of radioactivity, Blood","i.v., 10 min after injection",1.78 (0.23) % injected dose
same,"Biodistribution of radioactivity, Bone (Femur)","i.v., 10 min after injection",27.69 (3.15) % injected dose
same,"Biodistribution of radioactivity, Brain","i.v., 10 min after injection",0.10 (0.02) % injected dose
same,"Biodistribution of radioactivity, Heart","i.v., 10 min after injection",1.84 (0.41) % injected dose
same,"Biodistribution of radioactivity, Kidney","i.v., 10 min after injection",5.23 (2.31) % injected dose
same,"Biodistribution of radioactivity, Large-intestine","i.v., 10 min after injection",0.95 (0.22) % injected dose
same,"Biodistribution of radioactivity, Liver","i.v., 10 min after injection",1.34 (0.17) % injected dose
same,"Biodistribution of radioactivity, Lung","i.v., 10 min after injection",1.44 (0.19) % injected dose
same,"Biodistribution of radioactivity, Muscle","i.v., 10 min after injection",0.83 (0.13) % injected dose
same,"Biodistribution of radioactivity, Pancreas","i.v., 10 min after injection",0.87 (0.15) % injected dose
same,"Biodistribution of radioactivity, Small-intestine","i.v., 10 min after injection",1.31 (0.22) % injected dose
same,"Biodistribution of radioactivity, Spleen","i.v., 10 min after injection",1.10 (0.15) % injected dose
same,F/B ratio (Femur:blood ratio),"i.v., 10 min after injection",15.59 (1.01)
same,"Biodistribution of radioactivity, Stomach","i.v., 10 min after injection",0.36 (0.04) % injected dose
same,"Biodistribution of radioactivity, Blood","i.v., 60 min after injection",0.11 (0.04) % injected dose
same,"Biodistribution of radioactivity, Bone (Femur)","i.v., 60 min after injection",39.96 (2.52) % injected dose
same,"Biodistribution of radioactivity, Brain","i.v., 60 min after injection",0.36 (0.52) % injected dose
same,"Biodistribution of radioactivity, Heart","i.v., 60 min after injection",0.15 (0.05) % injected dose
same,"Biodistribution of radioactivity, Kidney","i.v., 60 min after injection",1.13 (0.89) % injected dose
same,"Biodistribution of radioactivity, Large-intestine","i.v., 60 min after injection",1.21 (0.27) % injected dose
same,"Biodistribution of radioactivity, Liver","i.v., 60 min after injection",0.09 (0.02) % injected dose
same,"Biodistribution of radioactivity, Lung","i.v., 60 min after injection",0.10 (0.03) % injected dose
same,"Biodistribution of radioactivity, Muscle","i.v., 60 min after injection",0.07 (0.04) % injected dose
same,"Biodistribution of radioactivity, Pancreas","i.v., 60 min after injection",0.08 (0.08) % injected dose
same,"Biodistribution of radioactivity, Small-intestine","i.v., 60 min after injection",0.68 (0.10) % injected dose
same,"Biodistribution of radioactivity, Spleen","i.v., 60 min after injection",0.08 (0.02) % injected dose
same,F/B ratio (Femur:blood ratio),"i.v., 60 min after injection",381.63 (84.17)
same,"Biodistribution of radioactivity, Stomach","i.v., 60 min after injection",0.06 (0.02) % injected dose
same,"Biodistribution of radioactivity, Blood","i.v., 180 min after injection",0.02 (0.00) % injected dose
same,"Biodistribution of radioactivity, Bone (Femur)","i.v., 180 min after injection",43.91 (2.64) % injected dose
same,"Biodistribution of radioactivity, Brain","i.v., 180 min after injection",0.05 (0.02) % injected dose
same,"Biodistribution of radioactivity, Heart","i.v., 180 min after injection",0.02 (0.01) % injected dose
same,"Biodistribution of radioactivity, Kidney","i.v., 180 min after injection",0.15 (0.08) % injected dose
same,"Biodistribution of radioactivity, Large-intestine","i.v., 180 min after injection",1.39 (0.19) % injected dose
same,"Biodistribution of radioactivity, Liver","i.v., 180 min after injection",0.02 (0.00) % injected dose
same,"Biodistribution of radioactivity, Lung","i.v., 180 min after injection",0.03 (0.01) % injected dose
same,"Biodistribution of radioactivity, Muscle","i.v., 180 min after injection",0.01 (0.01) % injected dose
same,"Biodistribution of radioactivity, Pancreas","i.v., 180 min after injection",0.02 (0.03) % injected dose
same,"Biodistribution of radioactivity, Small-intestine","i.v., 180 min after injection",0.06 (0.02) % injected dose
same,"Biodistribution of radioactivity, Spleen","i.v., 180 min after injection",0.02 (0.00) % injected dose
same,F/B ratio (Femur:blood ratio),"i.v., 180 min after injection",1983.88 (256.88)
same,"Biodistribution of radioactivity, Stomach","i.v., 180 min after injection",0.13 (0.14) % injected dose
same,Accumulation of radioactivity in bone (in words),"normal mice, i.v.",high accumulation and retention of radioactivity in bone; also recorded: highest bone uptake
